Measured values taken from patent US12533403B2, “Peptide conjugated particles” (NORTHWESTERN UNIVERSITY, priority 2013, dated 2026).
Entries after “also recorded” stand apart in the source; their conditions may differ. No end group written: not given here.

B1: OVA-PLG surface coupled particles: PLGA particle with OVA coupled to the outside of the particle (conjugate, UniProt P01012 2-386, looked up)
Ovalbumin: GSIGAASMEFCFDVFKELKVHHANENIFYCPIAIMSALAMVYLGAKDSTRTQINKVVRFDKLPGFGDSIEAQCGTSVNVHSSLRDILNQITKPNDVYSFSLASRLYAEERYPILPEYLQCVKELYRGGLEPINFQTAADQARELINSWVESQTNGIIRNVLQPSSVDSQTAMVLVNAIVFKGLWEKAFKDEDTQAMPFRVTEQESKPVQMMYQIGLFRVASMASEKMKILELPFASGTMSMLVLLPDEVSGLEQLESIINFEKLTEWTSSNVMEERKIKVYLPRMKMEEKYNLTSVLMAMGITDVFSSSANLSGISSAESLKISQAVHAAHAEINEAGREVVGSAEAGVDAASVSEEFRADHPFLFCIKHIATNAVLFFGRCVSP
modifications: coupled to PLG particles

How the values were obtained:
Th1 and Th17 responses = assay: Induction of antigen-specific Th1 and Th17 responses (draining lymph node cells); assay type: in vivo, BALB/c mice; settings: particles iv Day −7; measured at Day 10
Procedure: To determine whether administration of antigen-coupled particles inhibit induction of T-helper cells, either MOG35-55-PLG or OVA323-339-PLG particles were administered intravenously to BALB/c mice at Day −7. On Day 0, OVA323-339-PLG particles and Complete Freund's Adjuvant (CFA) were administered subcutaneously to the mice. The animals were re-stimulated with either MOG35-55-PLG or OVA323-339-PLG particles on Day 10 and the draining lymph node cells were isolated. The CPM and levels of IL-17, GM-CSF, IFN-γ, IL-10, and IL-4 were measured at Day 10.

[1] = system: Relapsing Experimental Autoimmune Encephalitis (R-EAE); assay: Prophylactic tolerance induction in PLP139-151/CFA-induced R-EAE; assay type: in vivo, SJL/J mice; settings: for clinical score (disease induction): 500 nm particles given on day −7 relative to immunization, N=5
[2] = system: cervical spinal cord of R-EAE mice; assay: Spinal cord histology and in vivo imaging in EAE
Procedure: An additional therapeutic tolerance strategy was performed by delivering PLP139-151-PLG or OVA323-339 PLG to mice. […] Mice were treated with PLP-PLG or OVA323-339-PLG and the tissue was retrieved at day 40. The cervical spinal cord was isolated and sectioned to investigate the immune response within the CNS, which underlies the pathology of R-EAE and multiple sclerosis.
Animals were treated with Complete Freund's Adjuvant (CFA), OVA323-339 PLG particles, or PLP139-151-PLG particles. The clinical scores and percent incidence of EAE were determined (FIG. 10B) and the spinal cords observed via in vivo imaging (FIGS. 10A and 11). […] The bar graphs give the numerical numbers to the signal strength shown in the brain and SC scans.

[3] = system: adoptive EAE (PLP139-151-activated blasts); assay: Therapeutic tolerance in adoptive transfer (and active) EAE; assay type: in vivo, SJL/J mice
Procedure: Experiments were conducted during development of embodiments of the present invention to investigate a second model of active disease termed adoptive transfer. Rather than immunizing the animals with the peptide, the lymphocytes from the spleen of mice with active disease were transferred to a recipient, who would subsequently develop disease. Experiments were conducted during development of embodiments of the present invention to characterize the ability of the PLG nanoparticles to deactivate the adoptively transferred activated effector cells.
Therapeutic tolerance induced by PLP139-151-PLG particles was compared in active and adoptive EAE. Adoptive EAE was induced in six to eight-week old female SJL/J mice by adoptive transfer of 2.5×10^6 PLP139-151-activated blasts. Mice were injected iv with PLP139-151 (squares) or OVA323-339 (circles) peptide coupled to 500 nm PLG nanoparticles 2 days (FIG. 14A), 14 days (FIG. 14C), 18 days (FIG. 14E), or 21 days (FIG. 14F) following disease induction. Clinical disease scores were compared to those following treatment with antigen-coupled splenocytes (FIG. 14A). Brain and spinal cord were collected from PLP139-151- or OVA323-339-tolerized mice for histological analysis on day 42. Sections from mice from panel A were stained for PLP protein and CD45 (FIG. 14B).
Mice were injected iv with PLP139-151-SP, PLP139-151-PLG, or OVA323-339-SP, or OVA323-339-PLG peptide coupled to 500 nm nanoparticles 10 days (FIG. 15A) or 2 days (FIG. 15B) following disease induction and the mean clinical score was determined.
SJL/J mice were injected i.v. with 500 nm PLG nanoparticles coupled with PLP139-151 (squares) or OVA323-339 (circles) 2 days following EAE induction by adoptive transfer. At the peak of disease (day 14) brains and spinal cords were removed and the number of lymphocytes (FIG. 16B), APCs (FIG. 16C), microglia (FIG. 16D), peripheral dendritic cells (FIG. 16E), myeloid dendritic cells (FIG. 16F) and macrophages (FIG. 16G) were enumerated by flow cytometry. The gating strategy for these populations is depicted in (FIG. 16A). CNS cell preparations were stimulated with PMA and ionomycin for 5 h prior to intracellular staining for IL-17A and IFN-γ (FIG. 16H).
To test the effect of treatment with an anti-PD-1 antibody on PLP139-151 induced tolerance in mice with adoptive EAE, on Day 0, mice received 3×10^6 PLP139-151 activated T-cell blasts via intravenous administration. On Day 2, they received PLP139-151 or OVA323-339 encapsulated in PLG particles via intravenous administration with either PBS or an anti-PD-1 antibody. On days 4, 6, 8, 10, and 12 all animals received either 250 μg anti-PD-1 antibody or PBS. […]

[4] = system: PLP139-151/CFA-induced EAE; assay: Anaphylaxis on iv injection during EAE remission; assay type: in vivo, SJL/J mice; settings: iv on day 21 (remission) relative to disease induction
Procedure: EAE was induced in six to eight week old female SJL/J mice by subcutaneous injection of PLP139-151 in CFA, and development of clinical disease was monitored and recorded (FIG. 5B). On day 21 relative to disease induction, mice were given iv injections of soluble PLP139-151 (clear squares), soluble OVA323-339 (clear circles), or the same peptides coupled to PLG nanoparticles (solids). Temperature of animals was monitored and recorded every 10 minutes for 1 hour following injection (FIG. 5A).

[5] = system: Relapsing Experimental Autoimmune Encephalitis (R-EAE); assay: Treatment of R-EAE at day 10 by different routes of administration; assay type: in vivo, mice
Procedure: Experiments were conducted during development of embodiments of the present invention to investigate the ability of the PLG-PLP139-151 particles to treat disease rather than prevent disease, and to determine whether the route of administration affected the development of disease. Mice were immunized at day 0 with PLP139-151 and an adjuvant. Mice normally have maximal clinical scores at day 12-14. In this model, the mice were treated at day 10 with the PLG-PLP139-151 particles or with control PLG-OVA323-339 particles either via intravenous (iv) administration, intraperitoneal (ip) administration, subcutaneous (sc) administration, or orally. […] This is in contrast to animals treated with PLP139-151 polystyrene particles, whereby >70% of animals where observed to die from anaphylaxis.

[6] = system: allergic airway inflammation (murine allergy model); assay: Therapeutic treatment of OVA/Alum-induced allergic airway inflammation; assay type: in vivo, mice; settings: treated after exposure to OVA
Procedure: To test the therapeutic effect of OVA encapsulated in PLG particles on airway inflammation, mice were treated intraperitoneally with OVA/Alum at a dose of 10 μg/mouse on day 0 and day 14. The mice were intravenously administered with OVA-PLG on days 28, and 42. Between days 56-58, the mice were treated three times with aerosolized OVA.
The animals were treated as described above except that on days 28 and 42, the mice were treated with either OVA encapsulated in PLG particles, or OVA coupled to PLG particles.
In the allergy model, coupled nanoparticles have a propensity to cause anaphylaxis and are not an effective therapy. […] Animals were exposed to OVA as an allergen, and were then treated with either a sham-PLG or TIMP particle, a PLG or TIMP particle with OVA, or no treatment.

| Molecule | Th1 and Th17 responses (CPM, IL-17, GM-CSF, IFN-γ, IL-10, IL-4) (Th1 and Th17 responses) | clinical score (disease induction) [1] | staining for CD45, CD4, and CD11b in spinal cord ([2]; tissue retrieved at day 40) | clinical scores between days 20 and 30 ([1]; 500 nm particles given on day −7, days 20 to 30) | clinical score (disease induction) ([1]; listed as PLG-PLP139-151) | clinical score (disease induction) ([1]; listed as PLP139-151-PLGA) | mean clinical score with anti-CD25 antibody compared with control IgG antibody ([1]; anti-CD25 on Day −9, particles plus antibody on Day −7) | delayed-type hypersensitivity (DTH) responses to immunizing PLP139-151 epitope ([1]; prophylactic treatment on day −7) | induction of R-EAE by type of particle (mean clinical score, mean cumulative score) ([1]; treated on day −7, N=5 per group) | tolerance induction (mean clinical score) in active and adoptive EAE ([3]; 500 nm particles iv after disease induction (10 days active, 2 days adoptive)) | infiltration of central nervous system immune cells ([3]; iv 2 days after adoptive transfer, brains and spinal cords at day 14, flow cytometry) | mean clinical score ([3]; treated at day 2, all but two time points through day 40) | mean clinical score at the other two time points ([3]; treated at day 2, through day 40) | anaphylaxis-associated mortality [4] | mean clinical scores ([5]; administered intravenously, at most time points) | efficiency of tolerance by route of administration ([5]; treated at day 10, iv, ip, sc or oral) | blood brain barrier (BBB) disruption and macrophage activation in the spinal cord ([2]; in vivo imaging (Angiosense, prosense)) | immune cell infiltration, inflammation and demyelination of the spinal cord ([2]; tissue retrieved at day 40) | TH2 response [6] |
| --- | --- | --- | --- | --- | --- | --- | --- | --- | --- | --- | --- | --- | --- | --- | --- | --- | --- | --- | --- |
| OVA323-339-PLG: control peptide OVA323-339 coupled to PLG particles (KISQAVHAAHAEINEAG; also: coupled to PLG particles; UniProt P01012 323-339, looked up, fragment) [reference compound] | inhibited the Th1 and Th17 responses | did not prevent disease induction | positive staining | – | – | – | – | – | – | – | – | – | – | – | – | – | – | – | – |
| PLP139-151-PLG: immunodominant proteolipid protein PLP139-151 epitope coupled to 500 nm PLG nanoparticles | – | – | minimal staining | under 1 | specifically prevented EAE development | 0 | greater mean clinical score | lack of delayed-type hypersensitivity (DTH) responses | more effective in down-regulating induction of R-EAE | tolerance is induced; also recorded: reduced disease; also recorded: induces tolerance | drastically reduced | 0 | 0.25 | does not result in any anaphylaxis-associated mortality | 0 | most efficient when the PLG-PLP139-151 particles are administered either intravenously or intraperitoneally | inhibits blood brain barrier (BBB) disruption and macrophage activation | inhibits cervical spinal cord inflammation and demyelination; also recorded: reduction in immune cell infiltration within the spinal cord | – |
| B1 | – | – | – | – | – | – | – | – | – | – | – | – | – | – | – | – | – | – | fail to reduce the TH2 response |
